Series [1] relates to Plasmodium falciparum RCS (Isolates from Brazil). The series is described as follows: In vitro antimalarial study, [3H]hypoxanthine uptake, RCS clone. In kind it is cell-based. The conditions noted are these: P. falciparum RCS clone. As for the experimental part:
(§1) B. Antimalarial Activities: (a). In Vitro Antimalarial Studies. The in vitro assays were conducted by using a modification of the semiautomated microdilution technique of Desjardins et al and Chulay et al.. Four P. falciparum malaria parasite clones, from CDC Indochina III (W-2), CDC Sierra Leone I (D-6), Southeast Asia Isolates (TM91C235) and RCS (Isolates from Brazil) were utilized in susceptibility testing. They were derived by direct visualization and micromanipulation from patient isolates. The W-2 clone is susceptible to mefloquine but resistant to chloroquine, sulfadoxine, pyrimethamine, and quinine, whereas the D-6 clone is naturally resistant to mefloquine but susceptible to chloroquine, sulfadoxine, pyrimethamine and quinine. Test compounds were initially dissolved in DMSO and diluted 400 fold in RPMI 1640 culture medium supplemented with 25 mM Hepes, 32 mM NaHCO3 and 10% Albumax I (Gibco BRL, Grand Island, N.Y.). These solutions were subsequently serially diluted two-fold with a Biomek 1000 (Beckman, Fullerton, Calif.) over 11 different concentrations. The parasites were exposed to serial dilutions of each compound for 48 hrs and incubated at 37° C. with 5% O2, 5% CO2 and 90% N2 prior to the addition of [^3H]hypoxanthine. After a further incubation of 18 hrs, parasite DNA was harvested from each microtiter well using Packard Filtermate 196 Harvester (Meriden, Conn.) onto glass filters. Uptake of [^3H]hypoxanthine was measured with a Packard Topcount Scintillation. Concentration-response data were analyzed by a non-linear regression logistic dose response model and the IC50 values (50% inhibitory concentrations) for each compound were calculated. (Table 3). (b). In Vivo Antimalarial Studies against P. berghei in mice: The in vivo efficacy of the artelinic acid analogs were determined in a modified Thompson test. This test measures the survivability of mice and parasitemia clearance following administration of drug on days 3-5 post infection. In brief, 5×10^6 P. berghei-infected erythrocytes (KBG-173 strain) were inoculated intraperitoneally to female mice that weighed 24-30 g. By day three post-infection, parasitemia ranged from 1.0-3.7%. Each drug, dissolved in 5% sodium bicarbonate, was administered PO twice daily from day 3-5 post-infection. Total doses for each drug ranged from 1.5-384 mg/kg with 8 mice included in each dosage group. The percent suppression of parasitemia in the treated mice compared to the untreated controls was determined for each test compound; the SD-50 (fifty percent suppression dose) and SD-90 were determined from a non-linear regression logistic dose response fit at day 6 parasitemia data. Survival of mice to day 60 post-infection was considered a cure (C). Compounds were considered active (A) when the survival time of the treated mice was greater than twice the control mice, i.e., 12-14 day (Table 4-5). (c). Sporozoite Induced Test Each compound is ground with a mortar & pestle and suspended in 0.5% hydroxyethylcellulose—0.1% Tween 80 for compounds to be administered PO and those given SC are suspended in peanut oil. Each compound is prepared at 3 different dose levels as requested by WRAIR. Compounds are administered either PO or SC to mice once 4 hr before inoculation of sporozoites. Four-week-old male CD-1 mice, purchased from Charles River and weighing 16-17 g, are placed 5 per cage and allowed to acclimate for 4 days before being treated and then inoculated with sporozoites. They are fed food and water ad-lib and maintained at 76° F. with 12 hr light and 12 hr darkness. The cages and water bottles are changed biweekly. The mice are weighed on Days 0, 3 and 6 then biweekly when blood films are taken. Plasmodium yoelii (17×) is used to infect mice that will be used to infect the mosquitoes. Mice are given a single dose of test compound 4 hr before being inoculated intraperitoneally with 2.5×10^5 sporozoites of Plasmodium yoelii on Day 0. […]

The nature of series [2]: Toxicity in P. cynomolgi-infected Rhesus monkeys. The conditions noted are these: 12 mg/kg/day for 7 consecutive days.
The nature of series [3]: Death rates after single intragastric treatment in rats. In kind it is in vivo.
The test system of series [4] is Plasmodium falciparum W-2 clone (CDC Indochina III). The series is described as follows: In vitro antimalarial study, [3H]hypoxanthine uptake, W-2 clone. The series is classed as cell-based. How it is done:
as §1

≈ marks a conversion by molar mass, not a printed value.

Data on two molecules can be found in patent publication US7253177B2, “Synthesis and antimalarial activity of pyrrolo[3,2-f]quinazoline-1,3-diamine derivatives” (United States of America as Represented by the Secretary of …, priority 2004, dated 2007).

Consider `CCOC(=O)Nc1nc(NC(=O)OCC)c2c(ccc3c2ccn3Cc2ccccc2C(F)(F)F)n1` [Compound 2b], for which the “IC50 RCS” value in series [1] is reported as greater than 250 ng/mL. For the same molecule, the signs of toxicity entry in series [2] is “neither 2b nor 3e exhibited any sign of toxicity”. In addition, the Deaths is listed as 0/4 in series [3] (rats n=4, single intragastric 50 mg/kg in 1% CMC suspension); 0/4 in series [3] (rats n=4, single intragastric 100 mg/kg in 1% CMC suspension); 0/4 in series [3] (rats n=4, single intragastric 200 mg/kg in 1% CMC suspension); 0/4 in series [3] (rats n=4, single intragastric 400 mg/kg in 1% CMC suspension); 1/4 in series [3] (rats n=4, single intragastric 800 mg/kg in 1% CMC suspension). For the same molecule, in series [3] (rats, 800 mg/kg, first cell after Deaths (day uncertain)), the “Day of Death: number of deaths” value stood at 1. For the same molecule, the “IC50 W-2” value in series [4] (P. falciparum W-2 clone) was found to be 127.80 ng/mL (≈ 255 nM).

Consider `CC(=O)N(C(C)=O)c1nc(N(C(C)=O)C(C)=O)c2c(ccc3c2ccn3Cc2ccccc2C(F)(F)F)n1` [Compound 3e, 1,3-Bis(diacetylamino)-7-(2-trifluoromethyl)benzyl-7H-pyrrolo[3,2-f]quinazoline], for which the IC50 turned out to be 0.0236 ng/mL (≈ 0.0449 nM) in series [1] (Plasmodium falciparum) and 0.0752 ng/mL (≈ 0.143 nM) in series [4] (Plasmodium falciparum, read-out: IC50 W-2). Moreover, the signs of toxicity result in series [2] is reported as “neither 2b nor 3e exhibited any sign of toxicity”. The molecule also came in with a therapeutic index in series [3] (rats) greater than 160. In addition, the “drug-related deaths in rats” value in series [3] (up to 800 mg by a single oral dose) is “no drug-related deaths”.

Usually IC50 stands for the concentration that gives 50% inhibition.
